For eleven compounds, IC50 results are on record in PubChem BioAssay AID652063 (Molecular Libraries Program, Specialized Chemistry Center, …, 2013).

Activity calls are given as the source filed them. No rule for the calls is given here.

The test has as its system mouse cells, CHOP mRNA qRT-PCR. The test is described as follows: Inhibitors of CHOP mRNA levels in mouse cells, qRT-PCR, medium throughput (AID 652063). A general note: In qPCR the cycle at which signal appears reflects the starting amount.
As for `Cc1cc(C2=NNC(=NC3CC3)SC2)c(C)n1-c1ccccc1`, the IC50 is 3.58 µM (inactive).
The value for `Cc1ccc(NC(=O)O/N=C/c2c(C)nn(C(C)(C)C)c2C)cc1Cl` was 4.53 µM (inactive).
With `C=CCn1c(C)cc(C2=NN=C(NCC)SC2)c1C`, the IC50 is 6.18 µM (inactive).
As to `CC(C)(C)c1ccc(-c2noc(CCC(N)=O)n2)cc1`, the IC50 is > 20 µM (inactive).
For the compound `CCN=C1NN=C(c2cc(C)n(Cc3ccco3)c2C)CS1`, the IC50 is 3.73 µM (inactive).
Consider `Cc1nn(C(C)(C)C)c(C)c1/C=N/OC(=O)Nc1ccc(Cl)cc1`, for which the IC50 was 18.4 µM (inactive).
The value for `Cc1cc(C(=O)COC(=O)c2ccccc2O)c(C)n1Cc1cccs1` was 6.12 µM (inactive).
The value for `Cc1cc(C2=NNC(=NC3CC3)SC2)c(C)n1-c1ccccc1F` was 2.89 µM (inactive).
Regarding `CC(C)(C)c1ccc(C(=O)Nc2ccc(CC(=O)O)cc2)o1`, the IC50 is > 20 µM (inactive).
The value for `Cc1ccc(NC(=O)c2cc3ccccc3oc2=O)cc1S(=O)(=O)N(C)C` was > 20 µM (inactive); that for `CCOc1ccc(-c2nc(CSCC(=O)NCc3ccco3)c(C)o2)cc1` was 4.37 µM (inactive).

One may read the IC50 as the concentration that inhibits the measured activity by half.
